The test system of one data set is HFF. As to the kind of experiment: (§1) Cytotoxicity against HFF. The data set is classed as cell-based. The following applies: human, hff; read-out: LC50 (the source's name).
In data set [1] the test system is Ribosome. Description: Inhibition of ribosome-mediated translation in prokaryotic system.
Data set [2] in a line: as §1. The conditions noted are these: human, HFF cells; read-out: LC50 (the source's name). The data set is classed as cell-based.
In data set [3] the test system is Ribosome. Description: Induction of ribosome-mediated readthrough activity in rabbit reticulocyte lysate assessed as suppression of R245X mutation after 90 mins by dual luciferase reporter gene assay. The following applies: Oryctolagus cuniculus. For orientation: In a reporter assay the amount or activity of a reporter protein is the signal.
Data set [4] relates to Ribosome. Description: Induction of ribosome-mediated readthrough activity in rabbit reticulocyte lysate assessed as suppression of W1282X mutation after 90 mins by dual luciferase reporter gene assay. The conditions noted are these: Oryctolagus cuniculus.
In data set [5] the target is T1, 80S Ribosome (Homo sapiens) (UniProt P08865+P42677+P62753+P15880+P23396+P61247+P62701+P22090+P46782+P62081+P62241+P46781+P46783+P62280+P25398+P62277+P62263+P62841+P62244+P62249+P08708+P62269+P39019+P60866+P63220+P62266+P62847+P62851+P62854+P62979+P62857+P62273+P62861+P39023+P36578+P46777+Q02878+P18124+P62424+P62917+P32969+P27635+P62906+P62913+P30050+P26373+P40429+P50914+P61313+P18621+Q07020+Q02543+P84098+P46778+P35268+P62829+P62750+P83731+P61254+P61353+P46776+P46779+P47914+P62888+P62899+P62910+P49207+P42766+P18077+Q9Y3U8+P83881+P61927+P61513+P63173+P62891+P62945+P05388+P05386). Description: Induction of ribosome-mediated readthrough activity in R3X-transfected HEK293 cells assessed as suppression of R3X mutation after 16 hrs by dual luciferase reporter gene assay. The format is cell-based.

A further data set deals with Bacillus spizizenii. As to the kind of experiment: Antibacterial activity against Bacillus subtilis ATCC 6633 by double microdilution method. The data set is classed as functional. On the technique in general: In broth dilution the organism is exposed to a series of concentrations in liquid medium.
Data set [6] in a line: Cytotoxicity against HEK293 cells. The data set is classed as cell-based. The following applies: human, read-out: LC50 (the source's name).
Data set [7] deals with T1, 80S Ribosome (Homo sapiens). Description: Induction of ribosome-mediated readthrough activity in R245X-transfected HEK293 cells assessed as suppression of R245X mutation after 16 hrs by dual luciferase reporter gene assay. The data set is classed as cell-based.
For data set [8] the target is unchanged. Description: Induction of ribosome-mediated readthrough activity in W1282X-transfected HEK293 cells assessed as suppression of W1282X mutation after 16 hrs by dual luciferase reporter gene assay. The format is cell-based.
The next data set deals with Escherichia coli. Description: Antibacterial activity against Escherichia coli R477/100 by double microdilution method. The format is functional.
Data set [9] concerns the target T1, 80S Ribosome (Homo sapiens). Description: Induction of ribosome-mediated readthrough activity in Q70X-transfected HEK293 cells assessed as suppression of Q70X mutation after 16 hrs by dual luciferase reporter gene assay. The format is cell-based.
For data set [10], the system named is Ribosome. As to the kind of experiment: Induction of ribosome-mediated readthrough activity in rabbit reticulocyte lysate assessed as suppression of R3381X mutation after 90 mins by dual luciferase reporter gene assay. The following applies: Oryctolagus cuniculus.
For data set [11], the system named is Ribosome. As to the kind of experiment: Induction of ribosome-mediated readthrough activity in rabbit reticulocyte lysate assessed as suppression of G542X mutation after 90 mins by dual luciferase reporter gene assay. The conditions noted are these: Oryctolagus cuniculus.
Data set [12] has as its system Ribosome. As to the kind of experiment: Induction of ribosome-mediated readthrough activity in rabbit reticulocyte lysate assessed as suppression of R3X mutation after 90 mins by dual luciferase reporter gene assay. The conditions noted are these: Oryctolagus cuniculus.
In data set [13] the test system is Ribosome. Description: Induction of ribosome-mediated readthrough activity in rabbit reticulocyte lysate assessed as suppression of Q70X mutation after 90 mins by dual luciferase reporter gene assay. The following applies: Oryctolagus cuniculus.

The text below walks through data of ChEMBL document CHEMBL3217644, “Repairing faulty genes by aminoglycosides: Identification of new pharmacophore with enhanced suppression of disease-causing nonsense mutations” (Medchemcomm, 2011).

≈ marks a conversion by molar mass, not a printed value. Structures can show the parent of a compound that is named as a salt. Calls of active or inactive are those of the source. No cut-off for these calls is given here.

Usually IC50 stands for the concentration that inhibits the measured activity by half. Lower therefore signals higher potency. Consider “GENTAMICIN SULFATE [listing 1 of 2 here]”, for which the CC50 in the data set with HFF came out at 3.2 mM. The same compound yielded an IC50 with Ribosome [1] of 28 nM.

As a reminder, the MIC is the lowest concentration that inhibits growth of the organism. A high value points to weaker potency. In the case of `C[C@H](N)[C@H]1O[C@@H](O[C@@H]2[C@@H](O)[C@H](NC(=O)[C@@H](O)CCN)C[C@H](N)[C@H]2O[C@H]2O[C@H](CO)[C@@H](O)[C@H](O)[C@H]2N)[C@H](O)[C@@H]1O`, the CC50 came out at 8.1 mM in [2] and 10.1 mM in [6]. Besides, the outcome (in the data set on Ribosome [3]; with Ribosome [4]; in data set [5]; in data set [7]; in [8]; in data set [9]) was Active. Also, the result in the data set with Ribosome [10] and in the data set with Ribosome [11] was Active. In addition, the values for the MIC against Bacillus spizizenii and with Escherichia coli were 33 µM (≈ 18.8 µg/mL) and 1070 µM (≈ 608 µg/mL), respectively. The compound further registered an IC50 with Ribosome [1] of 2270 nM.

As to `C[C@@H](N)[C@H]1O[C@@H](O[C@@H]2[C@@H](O)[C@H](N)C[C@H](N)[C@H]2O[C@H]2O[C@H](CO)[C@@H](O)[C@H](O)[C@H]2N)[C@H](O)[C@@H]1O`, the CC50 in data set [2] amounted to 20.1 mM; in [6], 19.8 mM. The result in the data set on Ribosome [12], in the data set on Ribosome [3], with Ribosome [4], with Ribosome [10], in the data set with Ribosome [11] and in the data set with Ribosome [13] was Active. The minimal inhibitory concentration (MIC) in the data set on Bacillus spizizenii worked out at 78 µM (≈ 36.5 µg/mL); against Escherichia coli, 4990 µM (≈ 2340 µg/mL). This compound gave an IC50 with Ribosome [1] of 2130 nM.

In the case of `NC[C@@H]1O[C@H](O[C@H]2[C@@H](O)[C@H](O[C@@H]3[C@@H](O)[C@H](N)C[C@H](N)[C@H]3O[C@H]3O[C@H](CO)[C@@H](O)[C@H](O)[C@H]3N)O[C@@H]2CO)[C@H](N)[C@@H](O)[C@@H]1O` [PAROMOMYCIN SULFATE], the CC50 was determined as 3.1 mM in [2] and 4.1 mM in [6]. The compound also had a minimal inhibitory concentration (MIC) in the data set with Bacillus spizizenii of 1.2 µM. Further, it took 51 nM to reach half-maximal inhibition with Ribosome [1] (IC50).

Regarding `C[C@@H](N)[C@H]1O[C@@H](O[C@@H]2[C@@H](O)[C@H](NC(=O)[C@@H](O)CCN)C[C@H](N)[C@H]2O[C@H]2O[C@H](CO)[C@@H](O)[C@H](O)[C@H]2N)[C@H](O)[C@@H]1O`, the figures for the CC50 in data set [2] and in data set [6] were 19.3 mM and 13.9 mM, respectively. For the same compound, the outcome (with Ribosome [3]; in the data set with Ribosome [4]; in [5]; in [7]; in data set [8]; in data set [9]) was Active. In addition, the result with Ribosome [10] and in the data set on Ribosome [11] was Active. The minimal inhibitory concentration (MIC) in the data set on Bacillus spizizenii was 33 µM (≈ 18.8 µg/mL); against Escherichia coli it was 1060 µM (≈ 602 µg/mL). Also, the IC50 in the data set on Ribosome [1] came to 811 nM.

In the case of `NC[C@H]1O[C@@H](O[C@@H]2[C@@H](O)[C@H](N)C[C@H](N)[C@H]2O[C@H]2O[C@H](CO)[C@@H](O)[C@H](O)[C@H]2N)[C@H](O)[C@@H]1O`, the CC50 in [2] turned out to be 21.8 mM. 100 µM (≈ 45.4 µg/mL) was the least that counted as inhibitory in the data set on Bacillus spizizenii (MIC). Also, the IC50 with Ribosome [1] turned out to be 460 nM.

In the case of `NCC[C@H](O)C(=O)N[C@@H]1C[C@H](N)[C@@H](O[C@H]2O[C@H](CO)[C@@H](O)[C@H](O)[C@H]2N)[C@H](O[C@@H]2O[C@H](CN)[C@@H](O)[C@H]2O)[C@H]1O`, the CC50 in data set [2] turned out to be 7.8 mM. The outcome (in the data set with Ribosome [3]; in the data set on Ribosome [4]; in data set [5]; in data set [7]; in data set [8]; in data set [9]) was Active. Also, the result with Ribosome [10] and with Ribosome [11] was Active. This compound came in with an MIC with Bacillus spizizenii of 70 µM (≈ 38.9 µg/mL). Further, the IC50 in the data set on Ribosome [1] is 160 nM.

Turning to `C[C@H](N)[C@H]1O[C@@H](O[C@@H]2[C@@H](O)[C@H](N)C[C@H](N)[C@H]2O[C@H]2O[C@H](CO)[C@@H](O)[C@H](O)[C@H]2N)[C@H](O)[C@@H]1O`, the CC50 in [2] amounted to 21.8 mM; in data set [6], 23.5 mM. Also, the result with Ribosome [12], in the data set on Ribosome [3], with Ribosome [4], in the data set with Ribosome [10], with Ribosome [11] and with Ribosome [13] was Active. Moreover, the MIC with Bacillus spizizenii worked out at 83 µM (≈ 38.9 µg/mL); with Escherichia coli, 2660 µM (≈ 1250 µg/mL). In the data set with Ribosome [1], the half-inhibitory concentration (IC50) was 1960 nM.

As to “GENTAMICIN SULFATE [listing 2 of 2 here]”, the outcome (with Ribosome [12]; in the data set on Ribosome [3]; with Ribosome [4]; in [5]; in data set [7]; in data set [8]) was Active. For the same compound, the outcome (in [9]; with Ribosome [10]; with Ribosome [11]; with Ribosome [13]) was Active. For the same compound, the minimal inhibitory concentration (MIC) in the data set on Bacillus spizizenii was under 0.75 µM.
